{
  "source": "patent US6297281A",
  "about": "“Association of no syntase inhibitors with trappers of oxygen reactive forms” (priority 1996, dated 2001)",
  "key": {"constitutive NO synthase": {"target": "constitutive NO synthase (Rattus norvegicus, UniProt P29476)", "assay": "biochemical", "method": "1) In vitro effect of constitutive NO synthase on the rat cerebellum\nThe test consists in measuring the conversion, by NO synthase, of L-arginine to L-citrulline. Samples of cerebella of Sprague-Dawley rats (300 g--Charles River) are taken rapidly, dissected at 4° C. and homogenised in a volume of extraction buffer (HEPES 50 mM, EDTA 1 mM, pH 7.4, pepstatin A […], leupeptin […]) centrifuged at 21000 g for 15 min at 4° C. The assay is carried out in glass test tubes in which are distributed […] of incubation buffer containing 100 mM of HEPES, pH 7.4, 2 mM of EDTA, 2.5 mM of CaCl2, 2 mM of dithiothreitol,2 mM of reduced NADPH and 10 µg/ml of calmodulin. […] The reaction is initiated by adding 50 μl of homogenised product, the final volume being 200 μl (the 25 μl shortfall being either water or the product being tested). After 15 min, the reaction is stopped with 2 ml of stop buffer (20 mM of HEPES, pH 5.5, 2 mM of EDTA). After passing samples over a column of 1 ml of DOWEX resin, the radioactivity is quantified by a liquid scintillation spectrometer.\nThe results are expressed in terms of the IC50 value and are summarised in the table of paragraph 2 (first column of results entitled \"constitutive NO synthase, formation of citrulline\")."}, "inducible NO synthase [1]": {"target": "T1, inducible NO synthase (Mus musculus, UniProt P29477)", "T1 construct": "The NO synthase is isolated with an extraction buffer; endogenous in cells; sonicated, 100,000 g ultracentrifuged extract", "assay": "In vitro effect on inducible NO synthase of murine macrophages J774A1 (formation of citrulline)", "assay_type": "biochemical", "settings": "NO synthase isolated from LPS/IFN-γ activated J774A1 macrophages, pH 7.4", "description": "2) In vitro effect on inducible NO synthase of murine macrophages J774A1\nMurine macrophages J774A1 produce a large quantity of nitrogen monoxide after activation by lipopolysaccharides (LPS) and interferon-γ(IFN-γ). The cells are cultivated in DMEM medium (Dulbecco's Modified Eagle Medium) enriched with 10% foetal calf serum at 37° C. under an atmosphere of 5% CO2 after activation by LPS and IFN-γ. They are seeded in a quantity of 5000 cells/cm^2 in 150 cm^2 bottles. The incubations are carried out in the presence of LPS (1g/ml) and murine IFN-γ (50 U/ml) in DMEM enriched with 10% foetal calf serum. The NO synthase is isolated with an extraction buffer (HEPES 50 mM, pH 7.4, dithiothreitol 0.5 mM, pepstatin A 1 mg/ml, leupeptin 1 mg/ml, soya trypsin inhibitor 1 mg/ml, antipain 1 mg/ml, and PMSF 10 mg/ml). After sonication in the extraction buffer at 4° C., the homogenised products are ultracentrifuged (100,000 g with 3,5-di-tert.butyl-4-hydroxybenzoic acid 4° C. for 1 h). The protocol is then identical to that of cerebellum NO synthase except for the composition of the incubation buffer (100 mM of HEPES, pH 7.4, 1 mM dithiothreitol, 2.5 mM of CaCl2, 10 M of tetrahydrobiopterin, FAD 10 μM, BSA 1 mg/ml, 2 mM of reduced NADPH)."}, "inducible NO synthase [2]": {"target": "T1, inducible NO synthase", "assay": "In vitro effect on the production of nitrites by murine macrophages J774A1", "assay_type": "cell-based", "settings": "J774A1 cells, LPS 1 μg/ml + IFN-γ 50 U/ml, 48 hours; read-out: IC50 Inducible NO synthase (formation of nitrites)", "method": "3) In vitro effect on the production of nitrites by murine macrophages J774A1\nThis test is used to measure the inhibitory activity of the products on inducible NO synthase of culture cells. The cells are cultivated in DMEM medium (Dulbecco's Modified Eagle Medium) enriched with 10% foetal calf serum at 37° C. under an atmosphere of 5% CO2. For the experiments, they are distributed in 96-well plates (50,000 cells per well) and incubated in DMEM without phenol red containing 10% foetal calf serum with LPS (1 μg/ml) and murine IFN-γ(50 U/ml) in the presence or absence of the products to be tested. After 48 hours, the concentration of nitrites in the culture media, degradation products of nitrogen monoxide, is measured by a colorimetric method according to Green et al. (Analytical Biochemistry, 126, 131-138 (1982)). The results are expressed in terms of the IC50 value and are summarised in the table of paragraph 2 (third column of results entitled \"inducible NO synthase, formation of nitrites\")."}, "[3]": {"test_system": "production of superoxide anions by J774A1 cells", "assay": "In vitro effect on the formation of superoxide anions (PMA-activated J774A1 cells, luminol chemiluminescence)", "assay_type": "cell-based, murine", "method": "4) In vitro effect on the formation of superoxide anions\nThe activation of the macrophage cells J774A1 by phorbol myristate acetate (PMA) leads to the production of superoxide anions in a few minutes. These superoxide anions are able to oxidise a luminescent substrate, luminol. This reaction generates photons, the production of which is measured by means of a chemiluminometer. The effects of the products on the production of superoxide anions are tested by incubating the J774A1 cells at 37° C. in the presence of PMA, products to be tested, and luminol. The results are expressed in terms of the IC50 value."}, "focal cerebral ischaemia": {"test_system": "focal cerebral ischaemia", "assay": "Effect on focal cerebral ischaemia with reperfusion (transient occlusion of the middle cerebral artery)", "assay_type": "in vivo, rat (male Sprague-Dawley)", "method": "Their activity was evaluated on a model of focal cerebral ischaemia in the rat. […] The effects of the combination were compared with those produced by a treatment with the inhibitor of nitrogen monoxide or the trap of reactive forms of oxygen alone.\n5) Effect on focal cerebral ischaemia with reperfusion\nThe experiments are carried out on male Sprague-Dawley rats (Charles River) weighing between 330 and 360 g. After anaesthesia with isoflurane, the rats undergo transient occlusion of the middle cerebral artery described by Memezawa et al. (Exp. Brain Res. 89, 67-78, 1992). A wire is introduced into the anterior cerebral artery bringing about an occlusion of the middle cerebral artery. Two hours later, the wire is withdrawn so as to permit recirculation of the blood to the Willis polygon. The temperature of the animals is monitored and controlled for 6 hours after occlusion. Forty eight hours after occlusion, the rats are anlesthetised with isoflurane and decapitated. Samples of brain are taken rapidly and immersed for 2 minutes in isopentane at -15° C. Six sections 2 mm thick are obtained and placed in a solution containing 2% 2,3,5-triphenyltetrazolium chloride (TCC) for 20 min and then fixed with formalin. The infarcted zone appears white and the healthy zone red. The infarcted surface area is measured at the site of the (sections by means of an image analyser. The volume of the infarct is calculated by integrating these various surface areas in the knowledge that they are 2 mm apart. The products are administered intraperitoneally. The first treatment is carried out 4 hours after occlusion, that is, 2 hours after the w ire was withdrawn, then 24 hours afterwards.\nCompound of example 1: 4 groups of animals are created:\nGroup 1: treated with physiol ogical serum\nGroup 2: treated with A (30 mg/kg)\nGroup 3: treated with B (20 mg/kg)\nGroup 4: treated with AB (50 mg/kg)\nCompound of example 2: 4 groups of animals are created:\nGroup 1: treated with physiological serum\nGroup 2: treated with A (10 mg/kg)\nGroup 4: treated with AB (A: 10 mg/kg and B: 20 mg/kg)\nCompound of example 3: 4 groups of animals are created:\nGroup 2: treated with A (0.03 mg/kg i.v.)\nGroup 3: treated with B (20 mg/kg i.p.)\nGroup 4: treated with AB (A: 0.03 mg/kg i.v. and B: 20 mg/kg i.p.)"}, "[4]": {"settings": "3,5-di-tert-butyl-4-hydroxybenzoic acid 20 mg/kg, aminoguanidine, their combination"}, "[5]": {"settings": "Example 1, i.p. 4 h and 24 h after, A 30 mg/kg (NS), B 20 mg/kg (NS), AB 50 mg/kg (** very significant), control 270.4 ± 30.05"}, "[6]": {"settings": "Example 1, i.p., A 30 mg/kg, B 20 mg/kg, AB 50 mg/kg"}, "[7]": {"settings": "Example 3, A 0.03 mg/kg i.v. (NS), B 20 mg/kg i.p. (NS), AB: A 0.03 mg/kg i.v. and B 20 mg/kg i.p. (** very significant), control 237.68 ± 31.51"}, "[8]": {"settings": "Example 3, A 0.03 mg/kg i.v., B 20 mg/kg i.p., AB: A 0.03 mg/kg i.v. and B 20 mg/kg i.p."}, "[9]": {"settings": "Example 2, i.p., A 10 mg/kg (NS), B 20 mg/kg (NS), AB: A 10 mg/kg and B 20 mg/kg (** very significant), control 270.4 ± 30.05"}, "[10]": {"settings": "Example 2, i.p., A 10 mg/kg, B 20 mg/kg, AB: A 10 mg/kg and B 20 mg/kg"}},
  "note": "Read-outs that look alike come from different tables or passages of the source.",
  "data": [
    {"smiles": "N=C(N)NN", "note": "[Example 1 A, aminoguanidine]", "values": [
      {"measurement": "IC50", "setting": "constitutive NO synthase", "value": "> 300", "unit": "µM"},
      {"measurement": "IC50", "setting": "inducible NO synthase [1]", "value": 29, "unit": "µM"},
      {"measurement": "IC50", "setting": "inducible NO synthase [2]", "value": 22, "unit": "µM"},
      {"measurement": "IC50 formation of superoxide anions", "setting": "[3]; 37° C.", "value": "inactive"},
      {"measurement": "protection of the animals from ischaemia (in words)", "setting": "focal cerebral ischaemia; [4]", "value": "low activity"},
      {"measurement": "Volume of infarct", "setting": "focal cerebral ischaemia; [5]", "value": "233 ± 30.15"},
      {"measurement": "% Protection", "setting": "focal cerebral ischaemia; [6]", "value": 13.8, "unit": "%"}
    ]},
    {"smiles": "CC(C)(C)c1cc(C(=O)O)cc(C(C)(C)C)c1O.N=C(N)NN", "note": "[Example 1 AB]", "values": [
      {"measurement": "IC50", "setting": "constitutive NO synthase; read-out: IC50 Constitutive NO synthase (formation of citrulline), rat cerebellum homogenate, pH 7.4, 15 min", "value": "> 300", "unit": "µM"},
      {"measurement": "IC50", "setting": "inducible NO synthase [1]", "value": 57, "unit": "µM"},
      {"measurement": "IC50", "setting": "inducible NO synthase [2]", "value": 26, "unit": "µM"},
      {"measurement": "IC50", "setting": "[3]; 37° C.", "value": 30, "unit": "µM"},
      {"measurement": "protection of the animals from ischaemia (in words)", "setting": "focal cerebral ischaemia; [4]", "value": "protects the animals from ischaemia in a highly significant manner"},
      {"measurement": "Volume of infarct", "setting": "focal cerebral ischaemia; [5]", "value": "89.6 ± 22.42"},
      {"measurement": "% Protection", "setting": "focal cerebral ischaemia; [6]", "value": 63.2, "unit": "%"}
    ]},
    {"smiles": "N=C(NCCC[C@H](N)C(=O)O)N[N+](=O)[O-]", "note": "[Example 3 A, NGnitroarginine]", "values": [
      {"measurement": "Volume of infarct", "setting": "focal cerebral ischaemia; [7]", "value": "238.14 ± 35.94"},
      {"measurement": "% Protection", "setting": "focal cerebral ischaemia; [8]", "value": 0, "unit": "%"},
      {"measurement": "protection of the animals from ischaemia (in words)", "setting": "focal cerebral ischaemia; nitroarginine 0.03 mg/kg, combined with i.p. 3,5-di-tert-butyl-4-hydroxybenzoic acid", "value": "not significantly active"}
    ]},
    {"smiles": "O=[N+]([O-])c1cccc2cn[nH]c12", "note": "[Example 2 A, 7-nitroindazole]", "values": [
      {"measurement": "protection of the animals from ischaemia (in words)", "setting": "focal cerebral ischaemia; 7-nitroindazole 10 mg/kg, combined with 3,5-di-tert-butyl-4-hydroxybenzoic acid", "value": "not significantly active"},
      {"measurement": "Volume of infarct", "setting": "focal cerebral ischaemia; [9]", "value": "238.9 ± 27.08"},
      {"measurement": "% Protection", "setting": "focal cerebral ischaemia; [10]", "value": 11.7, "unit": "%"}
    ]},
    {"smiles": "CC(C)(C)c1cc(C(=O)O)cc(C(C)(C)C)c1O", "note": "[Example 1 B, 3,5-di-tert-butyl-4-hydroxybenzoic acid]", "values": [
      {"measurement": "IC50", "setting": "[3]; Mus musculus, J774.A1, 37° C.", "value": 30, "unit": "µM"},
      {"measurement": "protection of the animals from ischaemia (in words)", "setting": "focal cerebral ischaemia; [4]", "value": "inactive"},
      {"measurement": "Volume of infarct", "setting": "focal cerebral ischaemia; [5]", "value": "250.9 ± 37.86"},
      {"measurement": "% Protection", "setting": "focal cerebral ischaemia; [6]", "value": 7.1, "unit": "%"},
      {"measurement": "Volume of infarct", "setting": "focal cerebral ischaemia; [9]", "value": "250.9 ± 37.86"},
      {"measurement": "% Protection", "setting": "focal cerebral ischaemia; [10]", "value": 7.1, "unit": "%"},
      {"measurement": "Volume of infarct", "setting": "focal cerebral ischaemia; [7]", "value": "222.9 ± 7.34"},
      {"measurement": "% Protection", "setting": "focal cerebral ischaemia; [8]", "value": 6.2, "unit": "%"}
    ]}
  ]
}
